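Each compound was tested at five concentrations against cells in 96-well plates for 48 hours. Here, GI50 denotes the concentration required for 50% inhibition of growth.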 Calls of active or inactive are those of the source. Rule as the data show it: active = GI50 up to about 1.1 µM and inactive = higher. Where only a bound is given, the exact number is not on record here.

Test systems include NCI-H460; MDA-MB-435; OVCAR-8; MOLT-4; NCI-H23; ACHN; SNB-19; TK-10; DU-145; SW-620; NCI-H226; HCT-15; EKVX; SR; SK-MEL-28; A498; SNB-75; SF-539; SK-MEL-5.
Holding throughout (assay): NCI-60 cell line screen, 48 h

In the case of `CC1(C)C(=O)N(O)C(C)(C)N1N=O`, the GI50 in the experiment with NCI-H460, in the experiment on MDA-MB-435, in the experiment on OVCAR-8, in the experiment on MOLT-4, in the experiment with NCI-H23 and in the experiment on ACHN was > 10 µM (inactive) each time. Further, the GI50 in the experiment on SNB-19 is > 10 µM (inactive); in the experiment with TK-10, > 10 µM (inactive); in the experiment on DU-145 it was > 10 µM (inactive); in the experiment on SW-620, > 10 µM (inactive); in the experiment with NCI-H226, > 10 µM (inactive); in the experiment on HCT-15, over 10 µM. Moreover, the GI50 in the experiment with EKVX and in the experiment with SR was > 10 µM (inactive) in each case.
For the molecule `COC(=O)[C@@H]1[C@@H](c2cccc(Cl)c2)[C@H](C(=O)OC)C2(C[C@@]1(C)O)NCCS2` (some centres not stated), the GI50 in the experiment with SK-MEL-28 is 77.4 µM (inactive); with NCI-H460 it was 48.4 µM (inactive); in the experiment with MDA-MB-435, 52.5 µM (inactive); with OVCAR-8 it was 86.5 µM (inactive); in the experiment on MOLT-4, 0.57 µM (active); with NCI-H23, 22.3 µM (inactive). The GI50 was > 100 µM (inactive) in the experiment with ACHN; 83.9 µM (inactive) with SNB-19; > 100 µM (inactive) with TK-10; > 100 µM (inactive) in the experiment on A498; 32.7 µM (inactive) in the experiment on DU-145; 36.6 µM (inactive) in the experiment with SW-620. In addition, the GI50 in the experiment on NCI-H226 is > 100 µM (inactive); in the experiment on SNB-75 it was 35.5 µM (inactive); with HCT-15, 82.6 µM; with SF-539, > 100 µM (inactive); with SK-MEL-5 it was 44.9 µM (inactive); with EKVX, > 100 µM (inactive).
For `OCCOCn1nncc1Cn1ncc2c(O)ncnc21`, the GI50 in the experiment with SK-MEL-28 was > 100 µM (inactive); in the experiment on NCI-H460, 49.4 µM (inactive); in the experiment on MDA-MB-435, 26.9 µM (inactive); in the experiment with OVCAR-8, > 100 µM (inactive); with MOLT-4, 40 µM (inactive); with NCI-H23 it was > 100 µM (inactive). In addition, the GI50 is > 100 µM (inactive) in the experiment on ACHN; > 100 µM (inactive) with SNB-19; > 100 µM (inactive) with TK-10; > 100 µM (inactive) in the experiment with A498; 43.7 µM (inactive) in the experiment on DU-145; 31.8 µM (inactive) in the experiment with SW-620. The GI50 with NCI-H226 was > 100 µM (inactive); in the experiment on SNB-75, > 100 µM (inactive); in the experiment with HCT-15, over 100 µM; in the experiment on SF-539, > 100 µM (inactive); in the experiment with SK-MEL-5 it was 47.5 µM (inactive); with EKVX, > 100 µM (inactive).
Take `Cc1c2c(OCCN3CCCCC3)nn(C)c(=O)c2c(C)n1-c1ccccc1`: the GI50 in the experiment on SK-MEL-28 was 25.9 µM (inactive); in the experiment with NCI-H460 it was 39.2 µM (inactive); in the experiment on MDA-MB-435, 32.3 µM (inactive); in the experiment on OVCAR-8 it was 74.8 µM (inactive); in the experiment on MOLT-4 it was 29.5 µM (inactive); in the experiment on NCI-H23 it was 28.1 µM (inactive). The GI50 in the experiment with ACHN was 28.5 µM (inactive); with SNB-19 it was 77.1 µM (inactive); in the experiment on TK-10, 67.5 µM (inactive); in the experiment with A498, 16.4 µM (inactive); in the experiment on DU-145, 52.7 µM (inactive); in the experiment with SW-620, 55 µM (inactive). In addition, the GI50 was 38 µM (inactive) in the experiment with NCI-H226; 19.5 µM (inactive) in the experiment with SNB-75; 32 µM in the experiment with HCT-15; 29.4 µM (inactive) in the experiment with SF-539; 16.7 µM (inactive) with SK-MEL-5; 50.6 µM (inactive) with EKVX.
Take `CC1(C)CN(CC(=O)O)CC(Cc2ccc(OCC(=O)O)cc2)N(CC(=O)O)CC(C)(C)SS1` (configuration not stated): the GI50 with SK-MEL-28, in the experiment on NCI-H460, in the experiment on MDA-MB-435, in the experiment with OVCAR-8, in the experiment with MOLT-4 and with NCI-H23 was > 100 µM (inactive) throughout. Besides, the GI50 in the experiment with ACHN, in the experiment with SNB-19, in the experiment on TK-10, with A498, in the experiment on DU-145 and with SW-620 was > 100 µM (inactive) in each case. Moreover, the GI50 in the experiment on NCI-H226 was > 100 µM (inactive); in the experiment with SNB-75 it was > 100 µM (inactive); in the experiment on HCT-15 it was over 100 µM; in the experiment with SF-539 it was > 100 µM (inactive); in the experiment with SK-MEL-5, > 100 µM (inactive); in the experiment on EKVX it was > 100 µM (inactive).
In the case of `COc1cnnc2c(C)c(-c3ccccc3)nn12`, the GI50 was 71.9 µM (inactive) in the experiment on SK-MEL-28; 66.1 µM (inactive) in the experiment on NCI-H460; 77.4 µM (inactive) in the experiment on MDA-MB-435; > 100 µM (inactive) in the experiment with OVCAR-8; > 83.6 µM (inactive) in the experiment on MOLT-4; > 100 µM (inactive) in the experiment on NCI-H23. Further, the GI50 is 68.9 µM (inactive) with ACHN; > 77.6 µM (inactive) with SNB-19; > 100 µM (inactive) with TK-10; 29.2 µM (inactive) in the experiment with A498; 24.3 µM (inactive) in the experiment with DU-145; > 100 µM (inactive) in the experiment with SW-620. The GI50 is > 100 µM (inactive) in the experiment with NCI-H226; 20 µM (inactive) with SNB-75; over 100 µM in the experiment on HCT-15; > 100 µM (inactive) in the experiment on SF-539; > 75.5 µM (inactive) in the experiment with SK-MEL-5; > 100 µM (inactive) with EKVX.
Consider `O=C1c2ccccc2-c2nc(-c3cccs3)cc3c2c1nc1ccccc13`, for which the GI50 with SK-MEL-28 was 17.5 µM (inactive); in the experiment on NCI-H460, 4.69 µM (inactive); in the experiment on MDA-MB-435, 2.01 µM (inactive); with OVCAR-8, 41.8 µM (inactive); with MOLT-4 it was 37.1 µM (inactive); in the experiment with NCI-H23 it was 11.9 µM (inactive). Moreover, the GI50 is 34.4 µM (inactive) with ACHN; 35.9 µM (inactive) in the experiment with SNB-19; > 100 µM (inactive) in the experiment on TK-10; 14.1 µM (inactive) in the experiment on DU-145; 13.8 µM (inactive) in the experiment on SW-620; 47.8 µM (inactive) in the experiment with NCI-H226. For the same molecule, the GI50 in the experiment with SNB-75 was 24.9 µM (inactive); in the experiment with HCT-15 it was 15.2 µM; in the experiment with SF-539, 24.5 µM (inactive); in the experiment with EKVX, 98.2 µM (inactive); in the experiment with SR, 6.21 µM (inactive).
Regarding `COc1ccccc1NC(=S)NNC(=O)c1cc(-c2ccccc2)nc2ccccc12`, the GI50 in the experiment with SK-MEL-28 is 10.4 µM (inactive); in the experiment on NCI-H460, 13.2 µM (inactive); with MDA-MB-435 it was 3.18 µM (inactive); with OVCAR-8, 18 µM (inactive); in the experiment on MOLT-4, 4.3 µM (inactive); in the experiment on NCI-H23, 13.9 µM (inactive). Besides, the GI50 with ACHN is 17.7 µM (inactive); with SNB-19, 24.5 µM (inactive); in the experiment with TK-10, 26.5 µM (inactive); in the experiment with DU-145, 12.4 µM (inactive); with SW-620, 7.76 µM (inactive); with NCI-H226, 17.3 µM (inactive). Further, the GI50 in the experiment on SNB-75 was 18.7 µM (inactive); with HCT-15, 4.11 µM; in the experiment on SF-539, 11.5 µM (inactive); in the experiment with SK-MEL-5 it was 5.81 µM (inactive); in the experiment on SR, 1.74 µM (inactive).
In the case of `COc1cc(-c2cc(=O)c3c(OC)c(OC)c(OC)c(OC)c3o2)c(OC)c(OC)c1OC`, the GI50 in the experiment with SK-MEL-28 was 42.5 µM (inactive); with NCI-H460, 36.1 µM (inactive); with MDA-MB-435, 45.8 µM (inactive); with OVCAR-8, 28.6 µM (inactive); in the experiment on MOLT-4 it was 72.6 µM (inactive); in the experiment on ACHN, 22 µM (inactive). The GI50 with SNB-19 was 98.6 µM (inactive); with TK-10 it was 61.7 µM (inactive); in the experiment on DU-145, 43.4 µM (inactive); with SW-620, 45.3 µM (inactive); in the experiment on NCI-H226, 38.1 µM (inactive); in the experiment with SNB-75, 16.4 µM (inactive). In addition, the GI50 with HCT-15 is 30.3 µM; in the experiment with SF-539, 47.8 µM (inactive); with SK-MEL-5, 36.1 µM (inactive); in the experiment with EKVX it was 66.8 µM (inactive); in the experiment on SR, 27.4 µM (inactive).
Take `Cc1ccc(-c2cnc(NC3OC(COC(=O)c4ccccc4)C(OC(=O)c4ccccc4)C(OC(=O)c4ccccc4)C3OC(=O)c3ccccc3)s2)cc1` (configuration not stated): the GI50 in the experiment on SK-MEL-28, in the experiment on NCI-H460, in the experiment with MDA-MB-435, with OVCAR-8, with MOLT-4 and in the experiment with NCI-H23 was > 100 µM (inactive) throughout. Further, the GI50 with ACHN, in the experiment with SNB-19, with TK-10, in the experiment with DU-145, in the experiment on SW-620 and in the experiment with NCI-H226 was > 100 µM (inactive) throughout. Moreover, the GI50 is > 100 µM (inactive) in the experiment with SNB-75; over 100 µM in the experiment on HCT-15; > 100 µM (inactive) in the experiment on SK-MEL-5; > 100 µM (inactive) in the experiment on EKVX; > 100 µM (inactive) in the experiment with SR.
Take `COc1cc(C(=O)N(C(=S)OC23CC4CC(CC(C4)C2)C3)c2ccccc2)cc(OC)c1OC`: the GI50 was 30.5 µM (inactive) in the experiment on SK-MEL-28; 27.1 µM (inactive) in the experiment on NCI-H460; 29.5 µM (inactive) with MDA-MB-435; 27 µM (inactive) in the experiment with OVCAR-8; 2.82 µM (inactive) in the experiment with MOLT-4; 28 µM (inactive) in the experiment with NCI-H23. Besides, the GI50 in the experiment on ACHN was 29.6 µM (inactive); in the experiment with SNB-19, 34.6 µM (inactive); in the experiment with TK-10 it was 42.8 µM (inactive); with A498, 24.9 µM (inactive); with DU-145 it was 58.9 µM (inactive); in the experiment on SW-620, 22.7 µM (inactive). Further, the GI50 was 21.5 µM (inactive) in the experiment with NCI-H226; 66.1 µM (inactive) with SNB-75; 26.5 µM with HCT-15; 31.3 µM (inactive) with SF-539; 16.1 µM (inactive) in the experiment on SK-MEL-5; 14.8 µM (inactive) in the experiment on EKVX.
Turning to `C=CCOC1OC(CO[Si](C)(C)C(C)(C)C)C(OCc2ccccc2)C(OCc2ccccc2)C1OCc1ccccc1` (configuration not stated), the GI50 is > 100 µM (inactive) in the experiment on SK-MEL-28; 42 µM (inactive) with NCI-H460; > 100 µM (inactive) in the experiment with MDA-MB-435; 37.5 µM (inactive) in the experiment with OVCAR-8; > 100 µM (inactive) in the experiment with MOLT-4; > 100 µM (inactive) in the experiment with NCI-H23. For the same molecule, the GI50 in the experiment on ACHN was 40.4 µM (inactive); with SNB-19 it was 26.2 µM (inactive); in the experiment on TK-10 it was > 100 µM (inactive); with DU-145, 39.7 µM (inactive); in the experiment with SW-620 it was > 100 µM (inactive); with NCI-H226, > 100 µM (inactive). Further, the GI50 in the experiment on SNB-75 is 21.5 µM (inactive); with HCT-15 it was 88.3 µM; in the experiment on SK-MEL-5, 29.5 µM (inactive); with EKVX it was > 100 µM (inactive); with SR, > 100 µM (inactive).

Values taken from ChEMBL document CHEMBL1201862, “PubChem BioAssay data set” (2004).
